# According to patent US10434112B2, “Use of agonists of formyl peptide receptor 2 for treating dermatological diseases” (Allergan, Inc., priority 2013, dated 2019):
# pEC50: −log10 of the molar value.
# Target: human FPR2 receptor (Homo sapiens (Human), UniProt P25090)
# Experiment: FLIPR Ca+2 response in HEK-Gα16 cells stably expressing the human FPR2 receptor
# Format: cell-based
# Set-up: FPR2 (% eff): unit not given here
# Settings: Table 4
# Protocol: FLIPR: HEK-Gα16 cells stably expressing the human FPR2 receptor was utilized. Cells were plated into 384-well poly-D-lysine coated plates at a density of 18,000 cells per well one day prior to use. The growth media was DMEM medium supplemented with 10% fetal bovine serum (FBS), 1% antibiotic-antimycotic, 50 μg/ml hygromycin, and 400 μg/ml geneticin. On the day of the experiment, the cells were washed twice with Hank's Balanced Salt Solution supplemented with 20 mM HEPES (HBSS/hepes buffer). The cells were then dye loaded with 2 μM Fluo-4 diluted in the HBSS/Hepes buffer and incubated at 37° C. for 40 minutes. Extracellular dye was removed by washing the cell plates four times prior to placing the plates in the FLIPR (Fluorometric Imaging Plate Reader, Molecular Devices). Ligands were diluted in HBSS/Hepes buffer and prepared in 384-well microplates. Data for Ca^+2 responses were obtained in relative fluorescence units.
# Chain of human FPR2 receptor (P25090 whole entry): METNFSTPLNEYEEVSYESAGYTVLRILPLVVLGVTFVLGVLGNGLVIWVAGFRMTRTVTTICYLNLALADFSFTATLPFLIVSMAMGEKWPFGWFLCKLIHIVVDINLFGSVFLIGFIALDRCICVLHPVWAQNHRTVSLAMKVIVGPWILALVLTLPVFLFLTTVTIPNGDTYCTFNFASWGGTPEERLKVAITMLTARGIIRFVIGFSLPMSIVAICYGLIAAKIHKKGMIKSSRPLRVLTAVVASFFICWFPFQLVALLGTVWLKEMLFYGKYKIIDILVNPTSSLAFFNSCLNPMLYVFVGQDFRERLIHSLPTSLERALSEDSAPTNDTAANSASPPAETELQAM
row,pEC50,SMILES
1,7.84,"CC1(CCc2ccccc2F)NC(=O)N(NC(=O)Nc2ccc(Br)cc2)C1=O (centres unmarked) [Compound 80, 1-(4-bromophenyl)-3-{4-[2-(2-fluorophenyl)ethyl]-4-methyl-2,5-dioxoimidazolidin-1-yl}urea]"
2,7.99,"CC[C@H](C)[C@H](NC(=O)Nc1ccc(Br)cc1F)C(=O)NCC(N)=O [Compound 62, (2S,3S)-N-(2-amino-2-oxoethyl)-2-{[(4-bromo-2-fluorophenyl)carbamoyl]amino}-3-methylpentanamide]"

# Same assay, conditions: Table 4; value in brackets, given mostly as fraction
row,FPR2 (% eff),SMILES
1,0.97,"CCC[C@H](NC(=O)Nc1ccc(Br)cc1)C(=O)NCC(N)=O [Compound 79, (2S)-N-(2-amino-2-oxoethyl)-2-{[(4-bromophenyl)carbamoyl]amino}pentanamide]"
2,1.0,"CC(C)C[C@H](NC(=O)Nc1ccc(Br)cc1)C(=O)N[C@H](C)CO [Compound 96, (2S)-2-{[(4-bromophenyl)carbamoyl]amino}-N-[(2R)-1-hydroxypropan-2-yl]-4-methylpentanamide]"
3,0.99,"CC(C)CC(C)(NC(=O)Nc1ccc(Br)cc1)C(=O)NCC(=O)O (centres unmarked) [Compound 111, [(2-{[(4-bromophenyl)carbamoyl]amino}-2,4-dimethylpentanoyl)amino] acetic acid]"
4,0.91,"CC1(CCc2ccccc2O)NC(=O)N(NC(=O)Nc2ccc(Br)cc2F)C1=O (centres unmarked) [Compound 106, 1-(4-bromo-2-fluorophenyl)-3-[4-[2-[2-hydroxyphenyl)ethyl]-4-methyl-2,5-dioxoimidazolidin-1-yl}urea]"
5,0.91,"CC1(CCc2ccc(O)c(F)c2)NC(=O)N(NC(=O)Nc2ccc(Br)cc2F)C1=O (centres unmarked) [Compound 98, 1-(4-bromo-2-fluorophenyl)-3-{4-[2-(3-fluoro-4-hydroxyphenyl)ethyl]-4-methyl-2,5-dioxoimidazolidin-1-yl}urea]"
6,99,"CC1(CCc2ccccc2F)NC(=O)N(NC(=O)Nc2ccc(Br)cc2)C1=O (centres unmarked) [Compound 80, 1-(4-bromophenyl)-3-{4-[2-(2-fluorophenyl)ethyl]-4-methyl-2,5-dioxoimidazolidin-1-yl}urea]"
7,100,"CC[C@H](C)[C@H](NC(=O)Nc1ccc(Br)cc1F)C(=O)NCC(N)=O [Compound 62, (2S,3S)-N-(2-amino-2-oxoethyl)-2-{[(4-bromo-2-fluorophenyl)carbamoyl]amino}-3-methylpentanamide]"

# Second part, the compound before the results:
row,SMILES,FPR2 (% eff)
1,"CC(C)C[C@H](NC(=O)Nc1ccc(Br)cc1)C(=O)NC(C)(C)C(=O)O [Compound 6, 2-{[(2S)-2-{[(4-bromophenyl)carbamoyl]amino}-4-methylpentanoyl]amino}-2-methylpropanoic acid]",0.91
2,"CCC1(CC)NC(=O)N(NC(=O)Nc2ccc(Br)cc2)C1=O [Compound 49, 1-(4-bromophenyl)-3-(4,4-diethyl-2,5-dioxoimidazolidin-1-yl)urea]",0.98
3,"CC[C@H](C)[C@H](NC(=O)Nc1ccc(Br)cc1F)C(=O)NCC(=O)O [Compound 59, {[(2S,3S)-2-{[(4-bromo-2-fluorophenyl)carbamoyl]amino}-3-methylpentanoyl]amino} acetic acid]",0.95
4,"CCC1(CC)NC(=O)N(NC(=O)Nc2ccc(Br)cc2F)C1=O [Compound 50, 1-(4-bromo-2-fluorophenyl)-3-(4,4-diethyl-2,5-dioxoimidazolidin-1-yl)urea]",1.0
5,"CCOP(=O)(CNC(=O)[C@@H](NC(=O)Nc1ccc(Br)cc1)[C@@H](C)CC)OCC [Compound 114, diethyl ({[(2S,3S)-2-{[(4-bromophenyl)carbamoyl]amino}-3-methylpentanoyl]amino}methyl)phosphonate]",1.0
6,"CC[C@H](C)[C@H](NC(=O)Nc1ccc(Br)cc1F)C(=O)O [Compound 5, (2S,3S)-2-{[(4-bromo-2-fluorophenyl)carbamoyl]amino}-3-methylpentanoic acid]",0.96
7,"CSc1ccc(NC(=O)Nc2ccc3c(c2)C(=O)N(CCCN)C(C)C3)cc1 (centres unmarked) [Compound 42, 1-[2-(3-aminopropyl)-3-methyl-1-oxo-1,2,3,4-tetrahydroisoquinolin-7-yl]-3-[4-(methylsulfanyl)phenyl]urea]",1.00
8,"CSc1ccc(NC(=O)Nc2ccc3c(c2)C(=O)N(CCc2c[nH]cn2)C(c2ccc(Cl)nc2)C3)cc1 (centres unmarked) [Compound 28, 1-{3-(6-chloropyridin-3-yl)-2-[2-(1H-imidazol-4-yl)ethyl]-1-oxo-1,2,3,4-tetrahydroisoquinolin-7-yl}-3-[4-(methylsulfanyl)phenyl]urea]",0.89
